# Activity calls are given as the source filed them. How the calls were made is not given here.
# Molecular target: Ubiquitin-conjugating enzyme E2 N (Homo sapiens) (UniProt P61088)
# Test: NMR detection of UBE2N ligand binding – biophysical, purified protein (AID 1552)
# Conditions: NMR binding to purified UBE2N
# Chain of Ubiquitin-conjugating enzyme E2 N (Homo sapiens) (P61088 whole entry, looked up): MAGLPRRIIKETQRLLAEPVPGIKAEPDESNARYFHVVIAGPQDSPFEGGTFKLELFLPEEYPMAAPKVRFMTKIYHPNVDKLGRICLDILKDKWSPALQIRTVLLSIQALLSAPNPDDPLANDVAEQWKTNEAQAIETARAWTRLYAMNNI
row,SMILES,Kd
1,Fc1ccc(-c2n[nH]c(=S)n2CC2CCCO2)cc1 (stereo not drawn),> 4 mM (inactive)
2,c1ccc2c(c1)CN1CCCC1=N2,> 4 mM (inactive)
3,O=C1C2C3CCC(O3)C2C(=O)N1c1cccc(F)c1 (stereo not drawn),> 4 mM (inactive)
4,NC(=O)CC1Nc2cccc3cccc(c23)NC1=O (stereo not drawn),> 4 mM (inactive)
5,Cn1c(SCC(=O)NCCO)nc2ccccc2c1=O,> 4 mM (inactive)
6,Nc1ncnc2c1ncn2CCN1CCCCC1,> 4 mM (inactive)
7,CNC(=O)Cn1c(=O)n(C)c2ccccc21,> 4 mM (inactive)
8,Nc1cc(F)nc(F)n1,> 4 mM (inactive)
9,O=C1C2CC=CCC2C(=O)N1c1ccccc1O (stereo not drawn),> 4 mM (inactive)
10,CNc1nc(C)nc(-n2nc(C)cc2C)n1,> 4 mM (inactive)
11,CNc1nc(SC)nc(N2CCOCC2)n1,> 4 mM (inactive)
12,COCC(=O)Nc1cccc(Br)c1,> 4 mM (inactive)
13,CCSc1nc(=S)n(CC)c(C)c1C(C)=O,> 4 mM (inactive)
14,Cc1[nH]ccc2c1[nH]c1cc(=O)ccc12,> 4 mM (inactive)
15,Cc1cc(NC(=O)c2cnn3cccnc23)no1,> 4 mM (inactive)
16,COc1c2occc2c(OC)c2c(=O)cc(C)oc12,> 4 mM (inactive)
17,Cc1nc(SCC#N)c2c3c(sc2n1)CCC3,> 4 mM (inactive)
18,C[C@@H]1C(=O)O[C@H]2[C@H]1CC[C@@]1(C)C=CC(=O)[C@@]3(C)O[C@@]213,> 4 mM (inactive)
19,O=C1CSC(=Nc2cccc(C(=O)O)c2)N1,> 4 mM (inactive)
20,C[C@@H]1OC(O[C@H]2[C@H](OC(=O)[C@]34CCC(C)(C)CC3C3=CCC5[C@@]6(C)CC[C@H](OC7O[C@@H](C)[C@H](O[C@@H]8OC[C@@H](O)[C@H](O)[C@H]8O)[C@@H](O)[C@H]7O)C(C)(C)C6CC[C@@]5(C)[C@]3(C)CC4O)OC[C@H](O)[C@H]2O)[C@H](O)[C@H](O)[C@H]1O[C@@H]1O[C@H](CO)[C@@H](O)[C@H](O)[C@H]1O (stereo partly drawn),> 4 mM (inactive)
21,CC(=O)Nc1ccc2c(C)cc(=O)[nH]c2c1,> 4 mM (inactive)
22,Cc1cccc(C)c1NC(=O)CN1CCOCC1,> 4 mM (inactive)
23,Cc1nnc(SCc2ccc(F)cc2)s1,> 4 mM (inactive)

row,SMILES,Kd
1,CSc1nsc(SCc2cnc(C)nc2N)n1,> 4 mM (inactive)
2,COc1cc([C@@H]2c3cc4c(cc3C(OC3O[C@@H]5COC(C)O[C@H]5[C@H](O)[C@H]3O)C3COC(=O)[C@@H]32)OCO4)cc(OC)c1O (stereo partly drawn),> 4 mM (inactive)
3,CC(=O)OC1CCC2(C)C(=CC=C3C2CCC2(C)C3CCC2C(C)/C=C/C(C)C(C)C)C1(C)C (stereo not drawn),> 4 mM (inactive)
4,O=C1c2ccncc2C(=O)N1CO,> 4 mM (inactive)
5,Cc1nc(-c2ccc(C(=O)O)s2)cs1,> 4 mM (inactive)
6,Cc1nc2ccc(NC(=O)N3CCOCC3)cc2s1,> 4 mM (inactive)
7,COc1ccc(NC(=O)c2ccc[n+]([O-])c2)cc1,> 4 mM (inactive)
8,Cn1nnc2cc(C(=O)NC3CCCCC3)ccc21,> 4 mM (inactive)
9,Cc1cc(C(=O)Nc2sc(C)c(C)c2C#N)no1,> 4 mM (inactive)
10,O=C(O)C1CSC(c2ccc(Cl)cc2)N1 (stereo not drawn),> 4 mM (inactive)
11,CC(=O)Oc1cc(-c2coc3cc(OC(C)=O)c(OC(C)=O)c(OC(C)=O)c3c2=O)cc(OC(C)=O)c1OC(C)=O,> 4 mM (inactive)
12,CC1=C2C(O)C(=O)OC3CC4C(C)(C)C(=O)C=C[C@]4(C)C(CC1)[C@]23C (stereo partly drawn),> 4 mM (inactive)
13,Cc1c(C)[n+]([O-])c(-c2ccc([N+](=O)[O-])cc2)n1O,> 4 mM (inactive)
14,CCOC(=O)c1c[nH]c2c(F)cccc2c1=O,> 4 mM (inactive)
15,O=c1[nH]cnc2nc[nH]c12,> 4 mM (inactive)
16,Cc1cc2c(nn1)CCc1nonc1-2,> 4 mM (inactive)
17,O=[N+]([O-])c1cccc(-c2c[n+](=O)c3c(n2[O-])CCC3)c1,> 4 mM (inactive)
18,Cc1n[nH]c(C)c1NC(=O)c1cccc(F)c1,> 4 mM (inactive)
19,O=C(Nc1ccc2c(c1)OCO2)c1cccs1,> 4 mM (inactive)
20,Cc1cccc(N2C(=O)CC(=O)NC2=O)c1,> 4 mM (inactive)
21,C[C@H]1C[C@@H](O)[C@]2(O)[C@@]13CC(=O)OC[C@@]2(C)[C@](C)(O)C(=O)C3,> 4 mM (inactive)
22,CC1=C(C(N)=O)C(c2cccs2)C(C(N)=O)=C(C)N1,> 4 mM (inactive)
23,O=C1CSC2=NCCCN12,> 4 mM (inactive)

row,SMILES,Kd
1,O=C(O)c1cccnc1Oc1ccccc1,> 4 mM (inactive)
2,CC(=O)Nc1ccc(S(=O)(=O)Nc2cc(C)on2)cc1,> 4 mM (inactive)
3,C[C@@H]1O[C@@H](O[C@H]2[C@@H](Oc3cc(O)c4c(c3)O[C@H](c3ccc(O)cc3)CC4=O)O[C@H](CO)[C@@H](O)[C@@H]2O)[C@H](O)[C@H](O)[C@H]1O,> 4 mM (inactive)
4,CN(C)C(=O)N1CCN(C(=O)c2ccco2)CC1,> 4 mM (inactive)
5,CCNC(CC(=O)Nc1ccc(O)cc1)C(=O)O (stereo not drawn),> 4 mM (inactive)
6,COc1ccc(NC(=O)CSc2nccc(=O)[nH]2)cc1,> 4 mM (inactive)
7,Nc1ccc(N2CCOCC2)c(Cl)c1,> 4 mM (inactive)
8,Cc1ccc(C)c(S(=O)(=O)NCc2cccnc2)c1,> 4 mM (inactive)
9,CC(=O)Nc1sccc1C(N)=O,> 4 mM (inactive)
10,Cc1nc2ccc(NC(=O)N3CCSCC3)cc2s1,> 4 mM (inactive)
11,Cc1oc(-c2ccccc2)cc1CO,> 4 mM (inactive)
12,COC(=O)Cc1csc(N)n1,> 4 mM (inactive)
13,COCc1c(CN)cnc(C)c1N,> 4 mM (inactive)
14,NC(=O)CN1CC(=O)NC(=O)C1,> 4 mM (inactive)
15,O=C(Oc1ccc(-c2nnco2)cc1)N1CCCCC1,> 4 mM (inactive)
16,Cc1c(/C=N/O)cnn1C,> 4 mM (inactive)
17,CC1(C)C[C@@H]2C(=O)CC[C@H]3O[C@]3(C)CC[C@H]21,> 4 mM (inactive)
18,CC(=O)c1cc2c(s1)SCC(=O)N2,> 4 mM (inactive)
19,CC(C(N)=O)N1C(=O)c2ccccc2C1=O (stereo not drawn),> 4 mM (inactive)
20,CCC(=O)NC(=S)Nc1ccc(O)cc1,> 4 mM (inactive)
21,C(=N\c1ncn[nH]1)/c1cccs1,> 4 mM (inactive)
22,O=c1[nH]c(=S)c2c(n1-c1ccccc1)CCC2,> 4 mM (inactive)
23,NCc1cccc2c1OCCO2,> 4 mM (inactive)

row,SMILES,Kd
1,c1ccc(-c2noc(-c3cccnc3)n2)nc1,> 4 mM (inactive)
2,CC12CN([N+](=O)[O-])C3(C(N)=O)CC1CCC23C (stereo not drawn),> 4 mM (inactive)
3,O=C(C1CCC(C(=O)N2CCCC2)CC1)N1CCCC1 (stereo not drawn),> 4 mM (inactive)
4,COCc1nc(-c2cc(Br)ccc2OC)no1,> 4 mM (inactive)
5,O=C(Nc1ccon1)c1sc2cc(F)ccc2c1Cl,> 4 mM (inactive)
6,COc1cc(-c2coc3cc(OCc4ccccc4)c(OC)c(O)c3c2=O)cc(O)c1OC,> 4 mM (inactive)
7,CN1CCc2c(sc(N)c2C#N)C1,> 4 mM (inactive)
8,O=C(O)C1Cc2ccccc2N1 (stereo not drawn),> 4 mM (inactive)
9,NC(=O)CSc1ccccn1,> 4 mM (inactive)
10,CCC(=O)Oc1ccc(N2C(=O)CCC2=O)cc1,> 4 mM (inactive)
11,Cc1nc2nc(Cc3ccccc3)nn2c(C)c1Cl,> 4 mM (inactive)
12,Cc1ccc(NC(=O)C2CCN(S(C)(=O)=O)CC2)cc1,> 4 mM (inactive)
13,O=C(O)CC1NCCNC1=O (stereo not drawn),> 4 mM (inactive)
14,OCc1ccccc1N1CCOCC1,> 4 mM (inactive)
15,O=C1CC(=O)N(Cc2ccco2)C(=S)N1,> 4 mM (inactive)
16,CN1CCC(NC(=O)c2cccnc2)CC1,> 4 mM (inactive)
17,CNC(=O)Nc1ccc(C(=O)NC)cc1,> 4 mM (inactive)
18,CN(C)N1C(=O)C2CCCCC2C1=O (stereo not drawn),> 4 mM (inactive)
19,CC(=O)c1cc(CN2C(=O)c3ccccc3C2=O)cs1,> 4 mM (inactive)
20,Cc1cc(=O)cc(C)n1-c1ccccc1N,> 4 mM (inactive)
21,COc1ccc(/C=C2/SC(N)=NC2=O)c(OC)c1,> 4 mM (inactive)
22,COc1ccc(C2CC(=O)NN2)cc1OC1CCCC1 (stereo not drawn),> 4 mM (inactive)
23,COc1cccc(NC(=O)c2cccs2)c1,> 4 mM (inactive)

row,SMILES,Kd
1,COC(=O)C[C@@H]1C2(C)C(=O)[C@@H](CC3=C4CC(=O)O[C@@H](c5ccoc5)[C@]4(C)CCC32)[C@H](OC(C)=O)C1(C)C (stereo partly drawn),> 4 mM (inactive)
2,O=c1n(-c2cccc(Cl)c2)c(=O)n2n1CCC2,> 4 mM (inactive)
3,COc1cc(C(=O)NCC2CCCO2)cc(OC)c1OC (stereo not drawn),> 4 mM (inactive)
4,CCOC(=O)C1C(=O)C2CCN1CC2 (stereo not drawn),> 4 mM (inactive)
5,N#Cc1cc2c(nc1SCc1ccncc1)CCC2,> 4 mM (inactive)
6,COC(=O)C[C@H]1C2(C)CC34OC5(C)O[C@@]6([C@H](OC)C(OC(=O)C(C)C)[C@]7(C)C(/C(=C(/OC)C(C)C)C(=O)O[C@H]7c7ccoc7)[C@@]6(O5)[C@H](OC)[C@@]3(OC)C2OC(C)=O)[C@]14C (stereo partly drawn),> 4 mM (inactive)
7,c1ccc(CSc2ncccn2)cc1,> 4 mM (inactive)
8,N[C@@H](C(=O)O)[C@@H](O)[C@H](O)[C@H](O)CO,> 4 mM (inactive)
9,O=C1CCC(=O)N1CNc1ccccc1,> 4 mM (inactive)
10,Cc1ccc(C(=O)Nc2ccncc2)o1,> 4 mM (inactive)
11,O=S1(=O)CCC(NC(=S)N2CCCCC2)C1 (stereo not drawn),> 4 mM (inactive)
12,O=C(O)CCC(=O)c1cccc2ccccc12,> 4 mM (inactive)
13,COc1cc([C@H]2Oc3cc([C@H]4Oc5cc(O)cc(O)c5C(=O)[C@@H]4O)ccc3O[C@@H]2CO)ccc1O,> 4 mM (inactive)
14,CCCCCC1C(=O)CCC1CC(=O)O (stereo not drawn),> 4 mM (inactive)
15,CC1(C)CC23C(=O)CCC(O)C2(C)CCC13 (stereo not drawn),> 4 mM (inactive)
16,CCOC(=O)CN1C(=O)c2ccccc2C1=O,> 4 mM (inactive)
17,O=C(O)c1ccc2c(c1)OCCCO2,> 4 mM (inactive)
18,CC(=O)O[C@@H]1c2c(ccc3ccc(=O)oc23)OC(C)(C)[C@@H]1OC(=O)CC(C)C,> 4 mM (inactive)
19,O=C(O)CCCCCCCCCCCCC1C=CCC1 (stereo not drawn),> 4 mM (inactive)
20,CSc1nc(-c2ccco2)nn1S(C)(=O)=O,> 4 mM (inactive)
21,Cn1nccc1N,> 4 mM (inactive)

# — PubChem BioAssay AID1552 (Sanford-Burnham Center for Chemical Genomics, 2009)
